Here are results for eleven compounds from patent US12435083B2, “Cyclopropyl-(hetero)aryl-substituted ethylsulphonyl-pyridine derivatives” (BOEHRINGER INGELHEIM VETMEDICA GMBH, priority 2021, dated 2025).

For orientation: EC50 means the concentration at which the effect is half-maximal. One may read the EC80 as the concentration at which the effect reaches the 80% level. A word on the mortality: it is the percentage killed.

Assay [1] has as its system Aedes aegypti L1 larvae. The assay is described as follows: Activity against larvae of Aedes aegypti (L1 larvae, 384-well, image-based mortality). As to conditions: 48 h at 27° C., 384-well, read-out: EC50 (percentage of mortality, A. aegypti L1 larvae). The method, then: Example 3: Screening Method to Test Activity of Compounds of Formula (I) Against Larvae of Aedes aegypti
Eight A. aegypti L1 larvae in a total volume of 64 μL water were added to 384-well microplates containing compounds formulated in 100% DMSO. The plates were incubated for 48 h at 27° C. Individual well images were acquired and analyzed using a pipeline to quantitatively assess the amount of larvae biomass accumulating at the bottom of the well. The efficacy of a compound at a given dose is expressed as “percentage of mortality” and determined by comparison to average biomass descriptors of positive and negative control wells containing 1.0 μM Fipronil or DMSO only, respectively. Dose response assay were conducted to determine an EC50 value.

Assay [2] deals with adult Ctenocephalides felis fleas. Description: Contact activity against adult Ctenocephalides felis (treated surface, motility by machine vision, 24 h). As to conditions: treated surface, 24h, read-out: EC80 (% motility reduction, adult C. felis, contact). From the text: Example 7: Screening Method to Test Contact Activity of Compounds of Formula (I) Against Adult Ctenocephalides felis

The subject of assay [3] is Plutella xylostella. Description: Insecticidal test on Plutella xylostella (Chinese cabbage seedling dip). As to conditions: 144 h, 500 ppm, seedling dip, 6 days after dip treatment, read-out: activity level (corrected mortality rate), Plutella xylostella. How it is done:
Example 12: Insecticidal Test on Plutella xylostella
(§1) The compounds of formula (I) of the present invention or salts thereof were separately dispersed in water and diluted to 500 ppm. Ten adults of Plutella xylostella were released onto Chinese cabbage seedlings and allowed to lay eggs thereon. 2 days after the release of the adults, the seedling was dipped in the dispersion for about 30 seconds. After air dried, the seedling was kept in a room at 25° C. 6 days after the dip treatment, the numbers of the dead and alive insects were counted. The corrected mortality rate was calculated according to the following formula and the insecticidal activity was evaluated according to the following criteria. Corrected mortality rate (%)=100×(Survival rate in an untreated plot−Survival rate in a treated plot)/Survival rate in an untreated plot • A: the corrected mortality rate is 100% • B: the corrected mortality rate is 90 to 99% • C: the corrected mortality rate is 80 to 89% • D: the corrected mortality rate is 50 to 79%

The test system of assay [4] is Laodelphax striatellus 3rd-instar nymphs. The assay is described as follows: Insecticidal test on Laodelphax striatellus (rice seedling dip). As to conditions: 192 h, 500 ppm, seedling dip, 8 days after inoculation, read-out: activity level (corrected mortality rate), Laodelphax striatellus. The method, then:
Example 13: Insecticidal Test on Laodelphax striatellus
as §1, with “Rice plant seedlings” for “Ten adults of Plutella xylostella”, “were” for “were released onto Chinese cabbage seedlings and allowed to lay eggs thereon. 2 days after the release of the adults, the seedling was”, “seedlings were put into a separate glass test tube and inoculated with ten 3rd-instar nymphs of Laodelphax striatellus and then the glass test tube” for “seedling”, “8” for “6”, “inoculation,” for “dip treatment,”

The subject of assay [5] is Myzus persicae. Description: Insecticidal test on Myzus persicae (foliar application on potted Chinese cabbage). As to conditions: 144 h, 500 ppm, foliar application, 6 days after application, read-out: control efficacy level (control rate), Myzus persicae. From the text:
Example 14: Insecticidal Test on Myzus persicae
The compounds of formula (I) of the present invention or salts thereof were separately dispersed in water and diluted to 500 ppm. Chinese cabbage plants were planted in plastic pots (diameter: 8 cm, height: 8 cm). Aphids (Myzus persicae) were propagated on the plants and then the number of surviving aphids was counted. The dispersion was applied to the foliage of the potted plants. After the plants were air dried, these were kept in a greenhouse. 6 days after the application, the number of the alive insects was counted on the plants. The control rate was calculated according to the following formula and the control efficacy was evaluated according to the following criteria. Control rate (%)=100−{(T×Ca)/(Ta×C)}×100 • Ta: the number of alive insects before the foliar application in a treated plot • T: the number of alive insects after the foliar application in a treated plot • Ca: the number of alive insects before the foliar application in an untreated plot • C: the number of alive insects after the foliar application in an untreated plot • A: the control rate is 100% • B: the control rate is 90 to 99% • C: the control rate is 80 to 89% • D: the control rate is 50 to 79%

The test system of assay [6] is adult Rhipicephalus sanguineus ticks. The assay is described as follows: Contact activity against adult Rhipicephalus sanguineus (coated vial, mortality at 48 h). As to conditions: Rhipicephalus sanguineus; 48 hours post-treatment, coated vial; read-out: EC50 (percentage mortality, adult R. sanguineus, contact). The method, then:
Example 5: Screening Method to Test Contact Activity of Compounds of Formula (I) Against Adult Rhipicephalus sanguineus
Compounds of formula (I) formulated in 100% DMSO were diluted in a solution containing acetone and Triton X-100 (0.02%). The resulting formulation was used to coat the inner walls of glass scintillation vials and the filter paper covering the cap of the vial. Once dried, ten adult R. sanguineus ticks were added to the vials. The vials were incubated at 24° C., 95% relative humidity, and 12 hours of light/12 hours of dark until evaluation. Ticks were visually evaluated for mortality at 48 hours post-treatment. Compound efficacy at a given dose is expressed as percentage mortality. A dose response series was implemented to determine EC50 values.
(§2) The four structurally closest prior art compounds (A), (B), (C) and (D) specifically excluded from the scope of formula (I) were characterized vis-a-vis selected compounds of formula (I) with regard to their potency in in vitro screening assays against fleas (Ctenocehalides felis) and ticks (Rhipicephalus sanguineus).
(§3) However, as explained above, spectrum of action against this range of species (i.e. fleas and ticks) is a desirable property of ectoparasiticides for veterinary use. In the following table 1 comparative experimental data of the in vitro assays are shown regarding flea membrane feeding (ingestion, blood feeding) activity against Ctenocephalides felis and contact activity against Rhipicephalus sanguineus.

Assay [7] relates to adult Ctenocephalides felis fleas. The assay is described as follows: Ingestion activity (flea membrane feeding, blood feeding) against adult Ctenocephalides felis. As to conditions: Ctenocephalides felis; bovine blood, 24h post treatment; read-out: EC80 (% motility reduction, adult C. felis, ingestion via membrane feeding).
Text: Example 6: Screening Method to Test Ingestion Activity of Compounds of Formula (I) Against Adult Ctenocephalides felis
as §2
It is important to note that compounds that show better activity versus ticks are more desirable in the animal health field, as ticks are more difficult to control than fleas. Noteworthy, in particular with regard to fleas the illustrated comparative data are based on a flea membrane feeding (ingestion, blood feeding) assay. Data from this assay are more relevant for compounds intended to be delivered systemically to an animal via oral or injectable routes. Membrane feeding assays differ to primary screening laboratory contact assays in that the latter only measure the effect of the direct contact of selected compounds on the parasite, such as the flea or the tick. The information derived from laboratory contact assays is strictly limited to the ability of the compound to be absorbed through the parasite surface and to reach its molecular target, and no information can be gleaned from these contact assays as to whether the compound would also be active when presented orally to the ectoparasite itself in a blood meal, such as with the membrane feeding assay, and certainly not when administered orally to an animal host (e.g. “in vivo”) with subsequent exposure to the ectoparasite.
as §3

The test system of assay [8] is Spodoptera litura 2nd-instar larvae. Description: Insecticidal test on Spodoptera litura (cabbage leaf dip). As to conditions: foliar, 192 h, 8 days after inoculation, read-out: activity level (corrected mortality rate), Spodoptera litura. The method, then:
Example 11: Insecticidal Test on Spodoptera litura
as §1, with “Cabbage leaves” for “Ten adults of Plutella xylostella”, “were” for “were released onto Chinese cabbage seedlings and allowed to lay eggs thereon. 2 days after the release of the adults, the seedling was”, “leaves were placed in a plastic Petri dish with a diameter of 9 cm and inoculated with ten 2nd-instar larvae of Spodoptera litura, after which the dish” for “seedling”, “closed and then allowed to stand” for “kept”, “8” for “6”, “inoculation,” for “dip treatment,”

Regarding `CCS(=O)(=O)c1cc(-c2ccc(C3CC3)cc2)cnc1-c1nc2cc(SC(F)(F)F)cnc2n1C` [Compound 83, 5-(4-cyclopropylphenyl)-3-(ethanesulfonyl)-2-[3-methyl-6-[(trifluoromethyl)sulfanyl]imidazo[4,5-b]pyridin-2-yl]pyridine], the concentration giving a half-maximal response (EC50) in assay [1] was less than 40 nM. Further, the EC80 in assay [2] lay within 1000 to 10000 nM. In addition, the mortality at 500 ppm in assay [3] and in assay [4] was 100% throughout. Moreover, the pest or weed control at 500 ppm in assay [5] worked out at 100%.
With `CCS(=O)(=O)c1cc(-c2cncc(C3CC3)c2)cnc1-c1nc2cc(C(F)(F)C(F)(F)F)nnc2n1C` [Compound 61, 5′-cyclopropyl-5-(ethanesulfonyl)-6-[7-methyl-3-(1,1,2,2,2-pentafluoroethyl)imidazo[4,5-c]pyridazin-6-yl]-3,3′-bipyridine], the figures for the concentration for a half-maximal effect (EC50) in assay [1] and in assay [6] were 40 to 50 nM and 10000 to 100000 nM, respectively.
For `CCS(=O)(=O)c1cc(-c2ccc(C3CC3)cc2)cnc1-n1nc2cc(SC(F)(F)F)ncc2c1Cl` [Compound 27, 2-[3-chloro-6-[(trifluoromethyl)sulfanyl]pyrazolo[4,3-c]pyridin-2-yl]-5-(4-cyclopropylphenyl)-3-(ethanesulfonyl)pyridine], the EC50 in assay [1] is less than 40 nM; in assay [6] it was less than 10000 nM. Besides, the EC80 in assay [2] lay in the range of 1000 to 10000 nM.
Turning to `CCS(=O)(=O)c1cc(-c2ccc(C3CC3)cc2)cnc1-c1cc2n(CC(F)(F)F)cc(C(F)(F)F)cc-2n1` [Compound 107, 5-(4-cyclopropylphenyl)-3-(ethanesulfonyl)-2-[4-(2,2,2-trifluoroethyl)-6-(trifluoromethyl)pyrrolo[3,2-b]pyridin-2-yl]pyridine], the 80% effect concentration (EC80) in assay [7] and in assay [2] was 1000 to 10000 nM in each case. In assay [8], the mortality at 500 ppm was determined as 100%.
Consider `CCS(=O)(=O)c1cc(-c2ccc(C3(C(F)(F)F)CC3)cc2)cnc1-c1nc2cc(C(F)(F)C(F)(F)F)ncc2n1C` [compound 116], for which, in assay [1], the 50% effective concentration (EC50) was less than 40 nM.
On to `CCS(=O)(=O)c1cc(-c2ccc(C3CC3)cc2)cnc1-c1ccc(OCC(F)(F)C(F)(F)F)cn1` [Compound 52, 5-(4-cyclopropylphenyl)-3-(ethanesulfonyl)-5′-(2,2,3,3,3-pentafluoropropoxy)-2,2′-bipyridine], for which the concentration for a half-maximal effect (EC50) was less than 40 nM in assay [1] and less than 10000 nM in assay [6]. For the same compound, the mortality at 500 ppm in assay [3] and in assay [4] was 100% in each case. Also, the pest or weed control at 500 ppm in assay [5] came out at 100%.
`CCS(=O)(=O)c1cc(-c2cccc(C3(C(F)(F)F)CC3)n2)cnc1-c1cc2n(CC(F)F)cc(C(F)(F)F)cc-2n1` [Compound 171, 6′-[4-(2,2-difluoroethyl)-6-(trifluoromethyl)pyrrolo[3,2-b]pyridin-2-yl]-5′-(ethanesulfonyl)-6-[I-(trifluoromethyl)cyclopropyl]-2,3′-bipyridine]: the concentration for an effect of 80% (EC80) in assay [7] and in assay [2] was 1000 to 10000 nM in each case. In addition, the mortality at 500 ppm in assay [8] and in assay [3] was 100% in each case.
With `CCS(=O)(=O)c1cc(-c2ccc(C3CC3)cc2)cnc1-c1nc2cc(S(=O)(=O)C(F)(F)F)cnc2n1C` [Compound 82, 5-(4-cyclopropylphenyl)-3-(ethanesulfonyl)-2-[3-methyl-6-trifluoromethanesulfonylimidazo[4,5-b]pyridin-2-yl]pyridine], the EC50 in assay [1] was less than 40 nM. The concentration for an effect of 80% (EC80) in assay [2] lay in the range of 1000 to 10000 nM. For the same compound, the mortality at 500 ppm in assay [3] and in assay [4] was 100% in each case.
In the case of `CCS(=O)(=O)c1cc(-c2ccc(C3CC3)cc2)cnc1-n1cc2cnc([S+]([O-])C(F)(F)F)cc2n1` (stereo not drawn) [Compound 29, 5-(4-cyclopropylphenyl)-3-(ethanesulfonyl)-2-[6-trifluoromethanesulfinylpyrazolo[4,3-c]pyridin-2-yl]pyridine], in assay [1], the EC50 is less than 40 nM. In addition, the concentration for an effect of 80% (EC80) in assay [2] lay in the range of 1000 to 10000 nM.
The like results for `CCS(=O)(=O)c1cc(-c2ccc(C3CC3)cc2)cnc1-n1cc2cnc(S(=O)(=O)C(F)(F)F)cc2n1` [Compound 30, 5-(4-cyclopropylphenyl)-3-(ethanesulfonyl)-2-[6-trifluoromethanesulfonylpyrazolo[4,3-c]pyridin-2-yl]pyridine] were, in that order, less than 40 nM and 1000 to 10000 nM.
As to `CCS(=O)(=O)c1cc(-c2ccnc(C3CC3)c2)cnc1-c1nc2cc(C(F)(F)C(F)(F)F)nnc2n1C` [Compound 60, 2′-cyclopropyl-5-(ethanesulfonyl)-6-[7-methyl-3-(1,1,2,2,2-pentafluoroethyl)imidazo[4,5-c]pyridazin-6-yl]-3,4′-bipyridine], the concentration for a half-maximal effect (EC50) in assay [1] was less than 40 nM; in assay [6] it was 10000 to 100000 nM. The concentration for an effect of 80% (EC80) in assay [2] was 1000 to 10000 nM. Besides, the mortality at 500 ppm in assay [3] and in assay [4] was 100% throughout.
